The text below walks through data of the supplement of paper PMC10307832.

Assay in all cases: relative viability (nuclei count vs DMSO), 5 days (fraction); higher = more cells survive
Compound in the assay “NVP-TAE684 + Palbociclib”: COc1cc(N2CCC(N3CCN(C)CC3)CC2)ccc1Nc1ncc(Cl)c(Nc2ccccc2S(=O)(=O)C(C)C)n1 [NVP-TAE684] + CC(=O)c1c(C)c2cnc(Nc3ccc(N4CCNCC4)cn3)nc2n(C2CCCC2)c1=O [Palbociclib] (partner 0.5 µM)
The essentials:
(§1)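 Lung cancer cell lines in 1536-well plates were dosed by pin tool the day after seeding, either with one drug alone or with a fixed anchor-drug dose plus five library-drug doses (not always all listed) in √10 steps. After 5 days, cells were fixed and their nuclei stained in one step (final 0.05% Triton X-100, 1% formaldehyde, 1 ug/ml Hoechst), then counted on 4× images. Relative viability is the nuclei count in treated wells divided by that in vehicle wells. Values are medians of duplicate plates.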

Compound in the assay “NVP-TAE684 + Bortezomib”: COc1cc(N2CCC(N3CCN(C)CC3)CC2)ccc1Nc1ncc(Cl)c(Nc2ccccc2S(=O)(=O)C(C)C)n1 [NVP-TAE684] + CC(C)C[C@H](NC(=O)[C@H](Cc1ccccc1)NC(=O)c1cnccn1)B(O)O [Bortezomib] (partner 0.002 µM)
Put shortly:
as §1

Compound in the assay “NVP-TAE684 + Crizotinib”: COc1cc(N2CCC(N3CCN(C)CC3)CC2)ccc1Nc1ncc(Cl)c(Nc2ccccc2S(=O)(=O)C(C)C)n1 [NVP-TAE684] + C[C@@H](Oc1cc(-c2cnn(C3CCNCC3)c2)cnc1N)c1c(Cl)ccc(F)c1Cl [Crizotinib] (partner 1 µM)
Put shortly: as §1

Compound in the assay “Vandetanib + Bortezomib”: COc1cc2/c(=N/c3ccc(Br)cc3F)nc[nH]c2cc1OCC1CCN(C)CC1 [Vandetanib] + CC(C)C[C@H](NC(=O)[C@H](Cc1ccccc1)NC(=O)c1cnccn1)B(O)O [Bortezomib] (partner 0.002 µM)
The essentials: as §1

Compound in the assay “Vandetanib + OSI-027”: COc1cc2/c(=N/c3ccc(Br)cc3F)nc[nH]c2cc1OCC1CCN(C)CC1 [Vandetanib] + COc1cccc2cc(-c3nc([C@H]4CC[C@H](C(=O)O)CC4)n4ncnc(N)c34)[nH]c12 [OSI-027] (partner 0.5 µM)
The essentials:
as §1

As to PC-14, the relative viability was 0.434 with NVP-TAE684 + Palbociclib (first compound 0.2 µM); 0.398 with NVP-TAE684 + Palbociclib (first compound 0.6325 µM); 0.0888 with NVP-TAE684 + Palbociclib (first compound 2 µM); 0.928 with NVP-TAE684 + Bortezomib (first compound 0.6325 µM); 0.964 with NVP-TAE684 + Bortezomib (first compound 2 µM); 0.994 in the assay with NVP-TAE684 + Crizotinib (first compound 0.2 µM). In addition, the relative viability is 1.02 with NVP-TAE684 + Crizotinib (first compound 0.6325 µM); 0.75 with NVP-TAE684 + Crizotinib (first compound 2 µM); 1.03 in the assay with Vandetanib + Bortezomib (first compound 0.02 µM); 0.939 with Vandetanib + Bortezomib (first compound 0.06325 µM); 1.05 with Vandetanib + Bortezomib (first compound 0.2 µM); 0.295 in the assay with Vandetanib + Bortezomib (first compound 0.6325 µM). For the same cell line, the relative viability turned out to be 0.258 with Vandetanib + Bortezomib (first compound 2 µM); 0.931 with Vandetanib + OSI-027 (first compound 0.02 µM); 0.576 with Vandetanib + OSI-027 (first compound 0.06325 µM); 0.458 with Vandetanib + OSI-027 (first compound 0.2 µM); 0.145 in the assay with Vandetanib + OSI-027 (first compound 0.6325 µM); 0.109 with Vandetanib + OSI-027 (first compound 2 µM).
In the case of NCI-H322M, the relative viability with NVP-TAE684 + Palbociclib (first compound 0.2 µM) was found to be 0.425; with NVP-TAE684 + Palbociclib (first compound 0.6325 µM), 0.43; with NVP-TAE684 + Palbociclib (first compound 2 µM), 0.375; with NVP-TAE684 + Bortezomib (first compound 0.2 µM), 1.23; in the assay with NVP-TAE684 + Bortezomib (first compound 0.6325 µM) it was 1.16; in the assay with NVP-TAE684 + Bortezomib (first compound 2 µM) it was 0.924. The relative viability with NVP-TAE684 + Crizotinib (first compound 0.2 µM) stood at 0.973; in the assay with NVP-TAE684 + Crizotinib (first compound 0.6325 µM), 0.758; in the assay with NVP-TAE684 + Crizotinib (first compound 2 µM), 0.845; with Vandetanib + Bortezomib (first compound 0.02 µM), 1.18; in the assay with Vandetanib + Bortezomib (first compound 0.06325 µM), 1.13; with Vandetanib + Bortezomib (first compound 0.2 µM), 1.18. Moreover, the relative viability was determined as 1.13 with Vandetanib + Bortezomib (first compound 0.6325 µM); 1.12 with Vandetanib + Bortezomib (first compound 2 µM); 0.573 with Vandetanib + OSI-027 (first compound 0.02 µM); 0.551 in the assay with Vandetanib + OSI-027 (first compound 0.06325 µM); 0.608 with Vandetanib + OSI-027 (first compound 0.2 µM); 0.49 with Vandetanib + OSI-027 (first compound 0.6325 µM). Moreover, the relative viability with Vandetanib + OSI-027 (first compound 2 µM) is 0.422.
For NCI-H1651, the relative viability was 0.506 in the assay with NVP-TAE684 + Palbociclib (first compound 0.2 µM); 0.572 with NVP-TAE684 + Palbociclib (first compound 0.6325 µM); 0.468 in the assay with NVP-TAE684 + Palbociclib (first compound 2 µM); 0.987 with NVP-TAE684 + Bortezomib (first compound 0.2 µM); 0.98 in the assay with NVP-TAE684 + Bortezomib (first compound 0.6325 µM); 0.93 in the assay with NVP-TAE684 + Bortezomib (first compound 2 µM). Moreover, the relative viability with NVP-TAE684 + Crizotinib (first compound 0.2 µM) was 0.893; with NVP-TAE684 + Crizotinib (first compound 0.6325 µM) it was 0.836; with NVP-TAE684 + Crizotinib (first compound 2 µM), 0.836; with Vandetanib + Bortezomib (first compound 0.02 µM), 0.915; with Vandetanib + Bortezomib (first compound 0.06325 µM), 0.883; in the assay with Vandetanib + Bortezomib (first compound 0.2 µM) it was 0.893. The relative viability in the assay with Vandetanib + Bortezomib (first compound 0.6325 µM) was determined as 0.897; with Vandetanib + Bortezomib (first compound 2 µM), 0.839; with Vandetanib + OSI-027 (first compound 0.02 µM) it was 0.595; with Vandetanib + OSI-027 (first compound 0.06325 µM), 0.703; in the assay with Vandetanib + OSI-027 (first compound 0.2 µM), 0.667; in the assay with Vandetanib + OSI-027 (first compound 0.6325 µM), 0.616. The relative viability with Vandetanib + OSI-027 (first compound 2 µM) was found to be 0.628.
Consider LCLC-97TM1, for which the relative viability in the assay with NVP-TAE684 + Palbociclib (first compound 0.2 µM) is 0.251; in the assay with NVP-TAE684 + Palbociclib (first compound 0.6325 µM) it was 0.249; in the assay with NVP-TAE684 + Palbociclib (first compound 2 µM), 0.0774; in the assay with NVP-TAE684 + Bortezomib (first compound 0.2 µM), 0.711; in the assay with NVP-TAE684 + Bortezomib (first compound 0.6325 µM), 0.216; with NVP-TAE684 + Bortezomib (first compound 2 µM), 0.194. Moreover, the relative viability with NVP-TAE684 + Crizotinib (first compound 0.2 µM) is 0.216; with NVP-TAE684 + Crizotinib (first compound 0.6325 µM) it was 0.336; in the assay with NVP-TAE684 + Crizotinib (first compound 2 µM), 0.0982; with Vandetanib + Bortezomib (first compound 0.02 µM), 0.827; with Vandetanib + Bortezomib (first compound 0.06325 µM) it was 0.641; with Vandetanib + Bortezomib (first compound 0.2 µM), 0.771. Also, the relative viability is 0.566 with Vandetanib + Bortezomib (first compound 0.6325 µM); 0.558 with Vandetanib + Bortezomib (first compound 2 µM); 0.669 with Vandetanib + OSI-027 (first compound 0.02 µM); 0.324 with Vandetanib + OSI-027 (first compound 0.06325 µM); 0.514 with Vandetanib + OSI-027 (first compound 0.2 µM); 0.394 with Vandetanib + OSI-027 (first compound 0.6325 µM). Besides, the relative viability with Vandetanib + OSI-027 (first compound 2 µM) amounted to 0.481.
Consider NCI-H727, for which the relative viability was 0.638 in the assay with NVP-TAE684 + Palbociclib (first compound 0.2 µM); 0.623 with NVP-TAE684 + Palbociclib (first compound 0.6325 µM); 0.516 with NVP-TAE684 + Palbociclib (first compound 2 µM); 0.684 in the assay with NVP-TAE684 + Bortezomib (first compound 0.2 µM); 0.887 with NVP-TAE684 + Bortezomib (first compound 0.6325 µM); 0.506 with NVP-TAE684 + Bortezomib (first compound 2 µM). In addition, the relative viability was 0.679 with NVP-TAE684 + Crizotinib (first compound 0.2 µM); 0.635 in the assay with NVP-TAE684 + Crizotinib (first compound 0.6325 µM); 0.221 with NVP-TAE684 + Crizotinib (first compound 2 µM); 0.791 with Vandetanib + Bortezomib (first compound 0.02 µM); 0.657 in the assay with Vandetanib + Bortezomib (first compound 0.06325 µM); 0.783 in the assay with Vandetanib + Bortezomib (first compound 0.2 µM). Besides, the relative viability with Vandetanib + Bortezomib (first compound 0.6325 µM) amounted to 0.856; with Vandetanib + Bortezomib (first compound 2 µM), 0.872; with Vandetanib + OSI-027 (first compound 0.02 µM), 0.533; in the assay with Vandetanib + OSI-027 (first compound 0.06325 µM) it was 0.551; with Vandetanib + OSI-027 (first compound 0.2 µM), 0.536; in the assay with Vandetanib + OSI-027 (first compound 0.6325 µM), 0.545. For the same cell line, in the assay with Vandetanib + OSI-027 (first compound 2 µM), the relative viability turned out to be 0.446.
With NCI-H1623, the relative viability came to 0.479 with Vandetanib + OSI-027 (first compound 0.02 µM); 0.439 with Vandetanib + OSI-027 (first compound 0.06325 µM); 0.454 in the assay with Vandetanib + OSI-027 (first compound 0.2 µM); 0.398 in the assay with Vandetanib + OSI-027 (first compound 0.6325 µM); 0.455 in the assay with Vandetanib + OSI-027 (first compound 2 µM).
For the cell line NCI-H1666, the relative viability in the assay with NVP-TAE684 + Palbociclib (first compound 0.2 µM) was 0.642; with NVP-TAE684 + Palbociclib (first compound 0.6325 µM) it was 0.713; in the assay with NVP-TAE684 + Palbociclib (first compound 2 µM) it was 0.617; in the assay with NVP-TAE684 + Bortezomib (first compound 0.2 µM) it was 0.849; in the assay with NVP-TAE684 + Bortezomib (first compound 0.6325 µM) it was 0.71; with NVP-TAE684 + Bortezomib (first compound 2 µM), 0.4. Moreover, the relative viability in the assay with NVP-TAE684 + Crizotinib (first compound 0.2 µM) was determined as 1.07; with NVP-TAE684 + Crizotinib (first compound 0.6325 µM), 0.841; with NVP-TAE684 + Crizotinib (first compound 2 µM), 0.526; with Vandetanib + Bortezomib (first compound 0.02 µM) it was 0.849; in the assay with Vandetanib + Bortezomib (first compound 0.06325 µM) it was 0.814; with Vandetanib + Bortezomib (first compound 0.2 µM), 0.712. Besides, the relative viability with Vandetanib + Bortezomib (first compound 0.6325 µM) was found to be 0.831; in the assay with Vandetanib + Bortezomib (first compound 2 µM) it was 0.786; with Vandetanib + OSI-027 (first compound 0.02 µM), 0.858; in the assay with Vandetanib + OSI-027 (first compound 0.06325 µM), 0.765; in the assay with Vandetanib + OSI-027 (first compound 0.2 µM) it was 0.836; with Vandetanib + OSI-027 (first compound 0.6325 µM), 0.788. Besides, the relative viability with Vandetanib + OSI-027 (first compound 2 µM) was determined as 0.751.
As for IA-LM, the relative viability with NVP-TAE684 + Bortezomib (first compound 0.2 µM) was 0.679; with NVP-TAE684 + Bortezomib (first compound 0.6325 µM), 0.563; with NVP-TAE684 + Bortezomib (first compound 2 µM), 0.583; in the assay with NVP-TAE684 + Crizotinib (first compound 0.2 µM), 0.626; in the assay with NVP-TAE684 + Crizotinib (first compound 0.6325 µM), 0.692; in the assay with NVP-TAE684 + Crizotinib (first compound 2 µM), 0.62. Moreover, the relative viability in the assay with Vandetanib + Bortezomib (first compound 0.02 µM) amounted to 0.727; with Vandetanib + Bortezomib (first compound 0.06325 µM), 0.831; with Vandetanib + Bortezomib (first compound 0.2 µM), 1.01; in the assay with Vandetanib + Bortezomib (first compound 0.6325 µM), 1.06; with Vandetanib + Bortezomib (first compound 2 µM), 0.953.
